Results from patent US20240041042A1, “1-(PYRIDYL)-5-AZINYLPYRAZOLE DERIVATIVES, AND THEIR USE FOR CONTROL OF UNDESIRED PLANT GROWTH” (Bayer Aktiengesellschaft, priority 2020, published 2024).
Like-named read-outs stand apart in the source and are kept apart here.

Legend:
Assay type in all cases: in vivo
[1] = system: Abutilon theophrasti (ABUTH); experiment: Pre-emergence herbicidal action against ABUTH; conditions: 100% = plants have died
Procedure, shortened: (§1)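 Dosages of 320 g/ha or less; pre-emergence; WP or EC in aqueous spray, 0.5% additive, 600 l/ha; greenhouse; visual % effect after ~3 wk relative to control pots.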

[2] = system: Alopecurus myosuroides (ALOMY); experiment: Pre-emergence herbicidal action against ALOMY; conditions: 320 g/ha; scored visually after about 3 weeks; 100% = plants have died
Procedure, shortened: as §1

[3] = system: Amaranthus retroflexus (AMARE); experiment: Pre-emergence herbicidal action against AMARE; conditions: visual scoring after about 3 weeks vs untreated controls
Procedure, shortened: as §1

Avena fatua (AVEFA) [4] = experiment: Pre-emergence herbicidal action against AVEFA; conditions: 320 g/ha, visual scoring after about 3 weeks vs untreated controls
Procedure, shortened: as §1

Lolium rigidum (LOLRI) [5] = experiment: Pre-emergence herbicidal action against LOLRI
Procedure, shortened: as §1

[6] = system: Matricaria inodora (MATIN); experiment: Pre-emergence herbicidal action against MATIN
Procedure, shortened: as §1

[7] = system: Pharbitis purpurea (PHBPU); experiment: Pre-emergence herbicidal action against PHBPU; conditions: dosage 320 g/ha
Procedure, shortened: as §1

[8] = system: Polygonum convolvulus (POLCO); experiment: Pre-emergence herbicidal action against POLCO; conditions: dosage 320 g/ha
Procedure, shortened: as §1

Viola tricolor (VIOTR) [9] = experiment: Pre-emergence herbicidal action against VIOTR
Procedure, shortened: as §1

Brassica napus (BRSNW) = conditions: crop plant compatibility, in comparison to untreated controls
Procedure, shortened: (§2)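 Crop injury rated visually in percent against untreated plants roughly 3 weeks after treatment (0% no effect, 100% plants dead). Compounds, as WP or EC with 0.5% additive in 600 l/ha water, were applied to the covering soil right after sowing; greenhouse growth. Suffixes a, b, c denote different dosages.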

Zea mays (ZEAMX) [10] = conditions: pre-emergence, crop plant compatibility, in comparison to untreated controls
Procedure, shortened: as §2

[11] = system: Abutilon theophrasti (ABUTH); experiment: Post-emergence herbicidal action against ABUTH; conditions: visual rating about 3 weeks after treatment vs untreated controls (100% = plants have died, 0% = like control plants)
Procedure, shortened: (§3)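 Doses of 320 g/ha or lower, suffixes a, b and c marking different dosages, were applied post-emergence at the one-leaf stage in 600 l/ha water with 0.5% additive. Damage was assessed visually after about 3 weeks in the greenhouse.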

[12] = system: Alopecurus myosuroides (ALOMY); experiment: Post-emergence herbicidal action against ALOMY; conditions: visual rating about 3 weeks after treatment vs untreated controls (100% = plants have died, 0% = like control plants)
Procedure, shortened: as §3

[13] = system: Amaranthus retroflexus (AMARE); experiment: Post-emergence herbicidal action against AMARE
Procedure, shortened: as §3

[14] = system: Echinochloa crus-galli (ECHCG); experiment: Post-emergence herbicidal action against ECHCG
Procedure, shortened: as §3

Lolium rigidum (LOLRI) [15] = experiment: Post-emergence herbicidal action against LOLRI
Procedure, shortened: as §3

[16] = system: Pharbitis purpurea (PHBPU); experiment: Post-emergence herbicidal action against PHBPU
Procedure, shortened: as §3

[17] = system: Polygonum convolvulus (POLCO); experiment: Post-emergence herbicidal action against POLCO
Procedure, shortened: as §3

[18] = system: Verconica persica (VERPE); experiment: Post-emergence herbicidal action against VERPE
Procedure, shortened: as §3

Viola tricolor (VIOTR) [19] = experiment: Post-emergence herbicidal action against VIOTR
Procedure, shortened: as §3

Oryza sativa (ORYSA) [20] = conditions: crop plant compatibility, effect in comparison to untreated controls
Procedure, shortened: (§4)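 Greenhouse crops in sandy loam sprayed post-emergence at the one-leaf stage, 2–3 weeks after sowing, with WP or EC formulations in water plus 0.5% additive at 600 l/ha. Damage rated visually about 3 weeks later versus untreated controls (0% = like control, 100% = dead); suffixes a–c denote different doses.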

Zea mays (ZEAMX) [21] = conditions: crop plant compatibility, effect vs untreated controls
Procedure, shortened: as §4

[22] = system: Digitaria sanguinalis (DIGSA); experiment: Pre-emergence herbicidal action against DIGSA; conditions: dosage 320 g/ha
Procedure, shortened: as §1

Oryza sativa (ORYSA) [23] = conditions: pre-emergence, crop plant compatibility, in comparison to untreated controls
Procedure, shortened: as §2

[24] = system: Triticum aestivum (TRZAS); conditions: crop plant compatibility, 80 g/ha, effect vs untreated controls
Procedure, shortened: as §4

Setaria viridis (SETVI) [25] = experiment: Pre-emergence herbicidal action against SETVI; conditions: dosage 320 g/ha
Procedure, shortened: as §1

Avena fatua (AVEFA) [26] = experiment: Post-emergence herbicidal action against AVEFA; conditions: visual rating about 3 weeks after treatment
Procedure, shortened: as §3

Setaria viridis (SETVI) [27] = experiment: Post-emergence herbicidal action against SETVI; conditions: dosage 320 g/ha
Procedure, shortened: as §3

[28] = system: Verconica persica (VERPE); experiment: Pre-emergence herbicidal action against VERPE
Procedure, shortened: as §1

[29] = system: Echinochloa crus-galli (ECHCG); experiment: Pre-emergence herbicidal action against ECHCG; conditions: dosage 320 g/ha
Procedure, shortened: as §1

[30] = Dosage column 320 g/ha (title prints 3200 g/ha), scored visually after about 3 weeks
[31] = 320 g/ha, visual rating about 3 weeks after treatment

SMILES	Pre-emergence action against ALOMY [2]	Pre-emergence action against AMARE in % ([3]; 320 g/ha)	Pre-emergence action against AVEFA in % (Avena fatua (AVEFA) [4])	Pre-emergence action against LOLRI in % (Lolium rigidum (LOLRI) [5]; dosage 320 g/ha)	Pre-emergence action against PHBPU in % [7]	Pre-emergence action against POLCO in % [8]	Pre-emergence action against VIOTR in % (Viola tricolor (VIOTR) [9]; 320 g/ha, Viola tricolor)	Pre-emergence action against VIOTR in % (Viola tricolor (VIOTR) [9]; dosage 80 g/ha)	Pre-emergence action against BRSNW in % (Brassica napus (BRSNW); 80 g/ha)	Pre-emergence action against ZEAMX in % (Zea mays (ZEAMX) [10]; 80 g/ha)	Post-emergence action against ABUTH in % ([11]; 320 g/ha)	Post-emergence action against ALOMY in % ([12]; 320 g/ha)	Post-emergence action against ECHCG in % ([14]; dosage 320 g/ha)	Post-emergence action against LOLRI in % (Lolium rigidum (LOLRI) [15]; dosage 320 g/ha)	Post-emergence action against POLCO in % ([17]; dosage 320 g/ha)	Post-emergence action against VERPE in % ([18]; 320 g/ha, VERPE)	Post-emergence action against ORYSA in % (Oryza sativa (ORYSA) [20]; 80 g/ha)	Post-emergence action against ZEAMX in % (Zea mays (ZEAMX) [21]; 80 g/ha)	Pre-emergence action against ORYSA in % (Oryza sativa (ORYSA) [23]; 80 g/ha)	Post-emergence action against SETVI in % (Setaria viridis (SETVI) [27])	further results
CCOC(=O)COc1nn(-c2ncccc2C(F)(F)F)c(-c2ccc(F)nc2)c1Cl [Example I-325]	100%	100%	100%	100%	80%	90%	100%	90%	20%	0%	90%	100%	90%	90%	80%	90%	20%	0%			Pre-emergence action against ABUTH ([1]; 80 g/ha, scored visually after about 3 weeks vs untreated controls, 0% = like control plants): 90%; Pre-emergence action against ABUTH [1, 30]: 90%; Pre-emergence action against AMARE in % ([3]; 80 g/ha): 100%; Pre-emergence action against MATIN in % ([6]; dosage 80 g/ha): 100%; Pre-emergence action against MATIN in % ([6]; dosage 320 g/ha): 100%; Pre-emergence action against ZEAMX in % (Zea mays (ZEAMX) [10]; 320 g/ha): 0%; Post-emergence action against ABUTH in % ([11]; 80 g/ha): 80%; Post-emergence action against ALOMY in % ([12]; 80 g/ha): 80%; Post-emergence action against AMARE in % [13, 31]: 80%; Post-emergence action against ECHCG in % ([14]; dosage 80 g/ha): 90%; Post-emergence action against PHBPU in % ([16]; dosage 320 g/ha): 80%; Post-emergence action against VERPE in % ([18]; dosage 80 g/ha): 80%; Post-emergence action against VIOTR in % (Viola tricolor (VIOTR) [19]; 80 g/ha): 90%; Post-emergence action against VIOTR in % (Viola tricolor (VIOTR) [19]; 320 g/ha): 90%
COC(=O)C=CC(C)NC(=O)COc1nn(-c2ccccn2)c(-c2ccc(F)nc2)c1Br (stereo not drawn) [Example I-297]	80%	80%							20%	10%						80%			10%		Pre-emergence action against DIGSA in % [22]: 80%; Pre-emergence action against ORYSA in % (Oryza sativa (ORYSA) [23]; 320 g/ha): 20%; Post-emergence action against TRZAS in % [24]: 10%; Post-emergence action against ZEAMX in % (Zea mays (ZEAMX) [21]; 320 g/ha): 0%
COC(=O)CCOC(=O)COc1nn(-c2ncccc2F)c(-c2ccc(F)nc2)c1Cl [Example I-272]	90%	90%	100%	80%			90%		0%	0%		90%	80%		80%	80%	10%	10%	10%	80%	Pre-emergence action against SETVI in % (Setaria viridis (SETVI) [25]): 90%; Post-emergence action against AVEFA in % (Avena fatua (AVEFA) [26]; 320 g/ha): 80%
COCCOC(=O)COc1nn(-c2ncccc2C(F)(F)F)c(-c2ccc(F)nc2)c1Br [Example I-378]	80%	90%		90%		80%	90%		0%	0%	80%		80%			80%	10%	10%	0%	80%	Pre-emergence action against AMARE in % ([3]; 80 g/ha): 80%
CCOC(=O)COc1nn(-c2ncccc2C(F)(F)F)c(-c2ccc(F)nc2)c1Br [Example I-335]	80%	90%	80%	90%	80%	90%	100%		0%	20%		100%	90%	90%	80%	90%	0%	0%	0%	90%	Pre-emergence action against VERPE in % ([28]; dosage 320 g/ha): 80%; Pre-emergence action against BRSNW in % (Brassica napus (BRSNW); 320 g/ha): 0%; Post-emergence action against AMARE in % ([13]; 80 g/ha, visual rating about 3 weeks after treatment vs untreated controls (100% = plants have died, 0% = like control plants)): 80%; Post-emergence action against AMARE in % [13, 31]: 80%; Post-emergence action against AVEFA in % (Avena fatua (AVEFA) [26]; 320 g/ha): 90%; Post-emergence action against ECHCG in % ([14]; dosage 80 g/ha): 80%; Post-emergence action against POLCO in % ([17]; dosage 80 g/ha): 80%; Post-emergence action against VERPE in % ([18]; dosage 80 g/ha): 90%; Post-emergence action against VIOTR in % (Viola tricolor (VIOTR) [19]; 80 g/ha): 80%; Post-emergence action against VIOTR in % (Viola tricolor (VIOTR) [19]; 320 g/ha): 90%; Post-emergence action against ZEAMX in % (Zea mays (ZEAMX) [21]; 320 g/ha): 20%
COC(=O)CCOC(=O)COc1nn(-c2ncccc2C(F)(F)F)c(-c2ccc(F)nc2)c1Br [Example I-381]	90%	90%		90%		80%	90%	80%	0%	0%			80%	80%		80%	20%	0%	20%		Post-emergence action against ORYSA in % (Oryza sativa (ORYSA) [20]; 320 g/ha): 20%
COC(=O)[C@@H](C)Oc1nn(-c2nc(F)ccc2F)c(-c2ccc(F)nc2)c1Br [Example I-319]	100%	100%	100%	100%	90%	90%	100%	100%	20%		80%	90%	90%	80%	80%	80%	0%	10%		80%	Pre-emergence action against ABUTH [1, 30]: 80%; Pre-emergence action against ECHCG in % [29]: 100%; Pre-emergence action against LOLRI in % (Lolium rigidum (LOLRI) [5]; dosage 80 g/ha): 90%; Pre-emergence action against MATIN in % ([6]; dosage 320 g/ha): 90%; Pre-emergence action against SETVI in % (Setaria viridis (SETVI) [25]): 100%; Pre-emergence action against VERPE in % ([28]; dosage 80 g/ha): 80%; Pre-emergence action against VERPE in % ([28]; dosage 320 g/ha): 90%; Post-emergence action against ALOMY in % ([12]; 80 g/ha): 90%; Post-emergence action against AMARE in % [13, 31]: 80%; Post-emergence action against AVEFA in % (Avena fatua (AVEFA) [26]; 80 g/ha): 80%; Post-emergence action against AVEFA in % (Avena fatua (AVEFA) [26]; 320 g/ha): 80%; Post-emergence action against ECHCG in % ([14]; dosage 80 g/ha): 80%; Post-emergence action against LOLRI in % (Lolium rigidum (LOLRI) [15]; dosage 80 g/ha): 80%; Post-emergence action against PHBPU in % ([16]; dosage 80 g/ha): 80%; Post-emergence action against PHBPU in % ([16]; dosage 320 g/ha): 90%; Post-emergence action against VIOTR in % (Viola tricolor (VIOTR) [19]; 80 g/ha): 80%; Post-emergence action against VIOTR in % (Viola tricolor (VIOTR) [19]; 320 g/ha): 90%
